Test results as given in patent publication US6670446B1, “N1 modified glycopeptides” (Eli Lilly and Company, priority 1998, dated 2003).

How the values were obtained:
Format in all cases: cell-based
[1] = test system: Sensitive Enterococcus faecium and faecalis; assay: MIC, standard broth micro-dilution assay, Sensitive; details: geometric mean of 4-6 isolates
Procedure: (§1) The antibacterial efficacy of the present compounds is illustrated by Table III. The minimal inhibitory concentrations (MICs) were determined using a standard broth micro-dilution assay.

[2] = test system: Staphylococcus aureus 446; assay: MIC, standard broth micro-dilution assay, SA 446
Procedure: as §1

[3] = test system: Haemophilus influenzae RD; assay: MIC, standard broth micro-dilution assay, HFRD
Procedure: as §1

[4] = test system: Enterococcus faecalis 276; assay: MIC, standard broth micro-dilution assay, EF 276
Procedure: as §1

[5] = test system: Staphylococcus aureus X400; assay: MIC, standard broth micro-dilution assay, SA X400
Procedure: as §1

[6] = test system: Resistant Enterococcus faecium and faecalis; assay: MIC, standard broth micro-dilution assay, Resistant; details: geometric mean of 4-6 isolates
Procedure: as §1

[7] = test system: Staphylococcus aureus SA1199; assay: MIC, standard broth micro-dilution assay, SA 1199
Procedure: as §1

[8] = test system: Staphylococcus aureus S13E
Procedure: as §1

[9] = test system: Staphylococcus aureus SA1199A; assay: MIC, standard broth micro-dilution assay, SA 1199A
Procedure: as §1

[10] = test system: Staphylococcus aureus 491; assay: MIC, standard broth micro-dilution assay, SA 491
Procedure: as §1

[11] = test system: Staphylococcus haemolyticus 415; assay: MIC, standard broth micro-dilution assay, SH 415
Procedure: as §1

[12] = test system: Staphylococcus haemolyticus 105; assay: MIC, standard broth micro-dilution assay, SH 105
Procedure: as §1

[13] = test system: Staphylococcus epidermidis 270; assay: MIC, standard broth micro-dilution assay, SE 270
Procedure: as §1

[14] = test system: Staphylococcus aureus X778; assay: MIC, standard broth micro-dilution assay, SA X778
Procedure: as §1

[15] = test system: Enterococcus faecalis 2041; assay: MIC, standard broth micro-dilution assay, EF 2041
Procedure: as §1

Enterococcus faecium 180 = assay: MIC, standard broth micro-dilution assay, EF 180
Procedure: as §1

[16] = test system: Staphylococcus aureus 489; assay: MIC, standard broth micro-dilution assay, SA 489
Procedure: as §1

[17] = test system: Enterococcus faecium 180-1; assay: MIC, standard broth micro-dilution assay, EF 180-1
Procedure: as §1

Escherichia coli EC14 = assay: MIC, standard broth micro-dilution assay, EC 14
Procedure: as §1

[18] = test system: Enterococcus gallinarum 245; assay: MIC, standard broth micro-dilution assay, EG 245
Procedure: as §1

[19] = test system: Staphylococcus aureus 447; assay: MIC, standard broth micro-dilution assay, SA 447
Procedure: as §1

CC1OC(OC2c3ccc(c(Cl)c3)Oc3cc4cc(c3OC3OC(CO)C(O)C(O)C3OC3CC(C)(N)C(O)C(C)O3)Oc3ccc(cc3Cl)C(O)C(NC(=O)C(Cc3ccccc3)N(C)C(=O)OC(C)(C)C)C(=O)NC(CC(N)=O)C(=O)NC4C(=O)NC3C(=O)NC2C(=O)NC(C(=O)O)c2cc(O)cc(O)c2-c2cc3ccc2O)CC(C)(N)C1O [Example 40, N^1-(N-BOC-N-methyl-D-phenylalanine) derivative of desleucylA82846B]
minimal inhibitory concentration (MIC), Sensitive [1]: 9.2
minimal inhibitory concentration (MIC), SA 446 [2]: 4
minimal inhibitory concentration (MIC), HFRD [3]: >64
minimal inhibitory concentration (MIC), EF 276 [4]: 1
minimal inhibitory concentration (MIC), SA X400 [5]: 4
minimal inhibitory concentration (MIC), Resistant [6]: >128
minimal inhibitory concentration (MIC), SA 1199 [7]: 4
minimal inhibitory concentration (MIC), SA S13E [8]: 4
minimal inhibitory concentration (MIC), SA 1199A [9]: 2
minimal inhibitory concentration (MIC), SA 491 [10]: 2
minimal inhibitory concentration (MIC), SH 415 [11]: 64
minimal inhibitory concentration (MIC), SH 105 [12]: 4
minimal inhibitory concentration (MIC), SE 270 [13]: 4
minimal inhibitory concentration (MIC), SA X778 [14]: 4
minimal inhibitory concentration (MIC), EF 2041 [15]: 2
minimal inhibitory concentration (MIC), EF 180 (Enterococcus faecium 180): >64
minimal inhibitory concentration (MIC), SA 489 [16]: 4
minimal inhibitory concentration (MIC), EF 180-1 [17]: 4
minimal inhibitory concentration (MIC), EC 14 (Escherichia coli EC14): >64
minimal inhibitory concentration (MIC), EG 245 [18]: 16
minimal inhibitory concentration (MIC), SA 447 [19]: 8

CCCCCCNC(CC(C)C)C(=O)NC1C(=O)NC(CC(N)=O)C(=O)NC2C(=O)NC3C(=O)NC(C(=O)NC(C(=O)O)c4cc(O)cc(O)c4-c4cc3ccc4O)C(OC3CC(C)(N)C(O)C(C)O3)c3ccc(c(Cl)c3)Oc3cc2cc(c3OC2OC(CO)C(O)C(O)C2OC2CC(C)(N)C(O)C(C)O2)Oc2ccc(cc2Cl)C1O [Example 39, N^1-(N-n-hexyl-D-leucine) derivative of desleucylA82846B]
minimal inhibitory concentration (MIC), Sensitive [1]: 0.38
minimal inhibitory concentration (MIC), SA 446 [2]: ≦.06
minimal inhibitory concentration (MIC), HFRD [3]: no
minimal inhibitory concentration (MIC), EF 276 [4]: ≦.06
minimal inhibitory concentration (MIC), SA X400 [5]: ≦.06
minimal inhibitory concentration (MIC), Resistant [6]: 45
minimal inhibitory concentration (MIC), SA 1199 [7]: 0.125
minimal inhibitory concentration (MIC), SA S13E [8]: 0.125
minimal inhibitory concentration (MIC), SA 1199A [9]: ≦.06
minimal inhibitory concentration (MIC), SA 491 [10]: ≦.06
minimal inhibitory concentration (MIC), SH 415 [11]: 2
minimal inhibitory concentration (MIC), SH 105 [12]: 0.5
minimal inhibitory concentration (MIC), SE 270 [13]: 0.25
minimal inhibitory concentration (MIC), SA X778 [14]: ≦.06
minimal inhibitory concentration (MIC), EF 2041 [15]: ≦.06
minimal inhibitory concentration (MIC), EF 180 (Enterococcus faecium 180): 2
minimal inhibitory concentration (MIC), SA 489 [16]: ≦.06
minimal inhibitory concentration (MIC), EF 180-1 [17]: no growth
minimal inhibitory concentration (MIC), EC 14 (Escherichia coli EC14): >64
minimal inhibitory concentration (MIC), EG 245 [18]: 0.5
minimal inhibitory concentration (MIC), SA 447 [19]: 0.5
